pEC50, pIC50: −log10 of the molar value. Counter-ions that a name gives are not always drawn.
Legend:
IL-1β = assay: THP-1 AlphaLISA IL-1β cytokine assay; type: cell-based; settings: Homo sapiens; differentiated THP-1 cells, LPS then Nigericin; Table 1
Description: Biological Example 1—THP-1 AlphaLISA IL-1β and IL-6 Cytokine Assay Measuring Inhibitory Effects on IL-1, and IL-6 Cytokine Output from THP-1s The cytokine inhibition profiles of compounds of formula (I) were determined in a differentiated THP-1 cell assay. All assays were performed in RPMI-1640 growth medium (Gibco), supplemented with 10% fetal bovine serum (FBS; Gibco), 1% penicillin-streptomycin and 1% sodium pyruvate unless specified otherwise. The IL-1β and IL-6 cytokine inhibition assays were each run in a background of differentiated THP-1 cells as described below. All reagents described were from Sigma-Aldrich unless specified otherwise. Compounds were prepared as 10 mM DMSO stocks. THP-1 cells were expanded as a suspension up to 80% confluence in appropriate growth medium. Cells were harvested, suspended, and treated with an appropriate concentration of phorbol 12-myristate 13-acetate (PMA) over a 72 hr period (37° C./5% CO2). Following 72 hrs of THP-1 cell incubation, cellular medium was removed and replaced with fresh growth media containing 1% of FBS. Working concentrations of compounds were prepared separately in 10% FBS treated growth medium and pre-incubated with the cells for 30 minutes (37° C./5% CO2). Following the 30 minute compound pre-incubation, THP-1s were treated with an appropriate concentration of LPS and the THP-1s were subsequently incubated for a 24 hr period (37° C./5% CO2). An appropriate final concentration of Nigericin was then dispensed into the THP-1 plates and incubated for 1 hour (37° C./5% CO2) before THP-1 supernatants were harvested and collected in separate polypropylene 96-well holding plates. Reagents from each of the IL-1β and IL-6 commercial kits (Perkin Elmer) were prepared and run according to the manufacturer's instructions. Subsequently, fluorescence signal detection in a microplate reader was measured (EnVision® Multilabel Reader, Perkin Elmer). Percentage inhibition was calculated per cytokine by normalizing the sample data to the high and low controls used within each plate (+/−LPS respectively). Percentage inhibition was then plotted against compound concentration and the 50% inhibitory concentration (IC50) was determined from the resultant concentration-response curve.

[1] = Hepatocyte stability assay, human; type: in vitro ADME; settings: cryopreserved hepatocytes, 10 μM compound, Table 5, read-out: T½
Description: (§1) Biological Example 3—Hepatocyte Stability Assay
(§2) Defrosted cryo-preserved hepatocytes (viability >70%) are used to determine the metabolic stability of a compound via calculation of intrinsic clearance (CIint; a measure of the removal of a compound from the liver in the absence of blood flow and cell binding). Clearance data are particularly important for […] as they can be used in combination with in vivo data to predict the half-life and oral bioavailability of a drug.
(§3) The metabolic stability in hepatocytes assay involves a time-dependent reaction using both positive and negative controls. The cells must be pre-incubated at 37° C. then spiked with test compound (and positive control); samples taken at pre-determined time intervals are analysed to monitor the change in concentration of the initial drug compound over 60 minutes. A buffer incubation reaction (with no hepatocytes present) acts as a negative control and two cocktail solutions, containing compounds with known high and low clearance values (verapamil/7-hydroxycoumarin and propranolol/diltiazem), act as positive controls. • 1. The assay is run with a cell concentration of 0.5×10^6 cells/mL in Leibovitz buffer. • 2. All compounds and controls are run in duplicate. • 3. Compound concentration is 10 μM. • 4. All compounds and controls are incubated with both cells and buffer to show turnover is due to hepatic metabolism. • 5. All wells on the incubation plate will have 326.7 μL of either cells or buffer added. • 6. Prior to assay, cell and buffer-only incubation plates are preincubated for 10 mins at 37° C. • 7. The assay is initiated by adding compounds, 3.3 μL of 1 mM in 10% DMSO-90% Buffer; final DMSO concentration is 0.1%. • 8. Samples are taken at regular timepoints (0, 5, 10, 20, 40, 60 min) until 60 mins. • 9. Sample volume is 40 μL and it is added to 160 μL of crash solvent (acetonitrile with internal standard) and stored on ice. • 10. At the end of the assay, the crash plates are centrifuged at 3500 rpm for 20 mins at 4° C. • 11. 80 μL of clear supernatant is removed and mixed with 80 μL of deionised water before being analysed by LC-MS/MS.
(§4) Raw LC-MS/MS data are exported to, and analysed in, Microsoft Excel for determination of intrinsic clearance. The percentage remaining of a compound is monitored using the peak area of the initial concentration as 100%. Intrinsic clearance and half-life values are calculated using a graph of the natural log of percentage remaining versus the time of reaction in minutes. Half-life (min) and intrinsic clearance (CIint in μL min^−1 10^−6 cells) values are calculated using the gradient of the graph (the elimination rate constant, k) and Equations 1 and 2.

hepatocytes [2] = assay: Hepatocyte stability assay, human; type: in vitro ADME; settings: 10 μM compound
Description: as §1, §2, §3, §4

[3] = Hepatocyte stability assay, mouse; type: in vitro ADME; settings: mouse, cryopreserved hepatocytes, 10 μM compound
Description: as §1, §2, §3, §4

hepatocytes [4] = assay: Hepatocyte stability assay, mouse; type: in vitro ADME; settings: 10 μM compound
Description: as §1, §2, §3, §4

NRF2 = NRF2 activation assay (DiscoverX PathHunter NRF2 translocation kit, U2OS cells); type: cell-based; settings: Table 3; for NRF2 activation Emax: normalised to dimethyl fumarate high control
Description: Biological Example 2—NRF2 Activation Assay Measuring Compound Activation Effects on the Anti-Inflammatory Transcription Factor NRF2 in DiscoverX PathHunter NRF2 Translocation Kit Potency and efficacy of compounds of formula (I) against the target of interest to activate NRF2 (nuclear factor erythroid 2-related factor 2) were determined using the PathHunter NRF2 translocation kit (DiscoverX). The NRF2 translocation assay was run using an engineered recombinant cell line, utilising enzyme fragment complementation to determine activation of the Keap1-NRF2 protein complex and subsequent translocation of NRF2 into the nucleus. Enzyme activity was quantified using a chemiluminescent substrate consumed following the formation of a functional enzyme upon PK-tagged NRF2 translocation into the nucleus. Additionally, a defined concentration of dimethyl fumarate was used as the ‘High’ control to normalise test compound activation responses to. U2OS PathHunter eXpress cells were thawed from frozen prior to plating. Following plating, U2OS cells were incubated for 24 hrs (37° C./5% CO2) in commercial kit provided cell medium. Following 24 hrs of U2OS incubation, cells were directly treated with an appropriate final concentration of compound. Following compound treatment, the U2OS plates were incubated for a further 6 hours (37° C./5% CO2) before detection reagent from the PathHunter NRF2 commercial kit was prepared and added to test plates according to the manufacturer's instructions. Subsequently, the luminescence signal detection in a microplate reader was measured (PHERAstar®, BMG Labtech). Percentage activation was calculated by normalising the sample data to the high and low controls used within each plate (+/−DMF). Percentage activation/response was then plotted against compound concentration and the 50% activation concentration (EC50) was determined from the plotted concentration-response curve.

| Compound | pIC50 (IL-1β) | half-life at 10 μM [1] [min] | CIint (hepatocytes [2]; Table 5) | CIint (hepatocytes [2]; Table 6) [μL min^−1 10^−6 cells] | T½ (hepatocytes [2]; Table 6) [min] | half-life at 10 μM ([3]; Table 5, read-out: T½) [min] | half-life at 10 μM ([3]; Table 6, read-out: T½) [min] | CIint (hepatocytes [4]; Table 5) | CIint (hepatocytes [4]; Table 6) [μL min^−1 10^−6 cells] | pEC50 (NRF2; +GSH) | NRF2 activation Emax (NRF2; +GSH) | pEC50 (NRF2; −GSH) | NRF2 activation Emax (NRF2; −GSH) |
| --- | --- | --- | --- | --- | --- | --- | --- | --- | --- | --- | --- | --- | --- |
| COC(=O)/C=C/C(=O)OCCN1C(=O)CCC1=O [2-(2,5-Dioxopyrrolidin-1-yl)ethyl methyl fumarate, reference compound] | 5.21 | < 5 | >277 μL min^−1 10^−6 cells | >277 | <5 | < 5 | < 5 | >277 μL min^−1 10^−6 cells | >277 | – | – | – | – |
| O=C(/C=C/C(=O)OC1CCCCCCC1)OCCc1nnn[nH]1 [Example 5, 2-(1H-tetrazol-5-yl)ethyl cyclooctyl fumarate] | 5.21 to 5.60 | 5 to 29 | ++ (++ means 150-277) | – | – | < 5 | – | + (+ means >277) | – | 4.00 to 4.70 | + (+ means >17.1-99) | 5.22 to 5.68 | +++ (+++ means 150-199%) |
| C[C@H](OC(=O)/C=C/C(=O)OC1CCCCCCC1)C(=O)O [Example 6, (S,E)-2-((4-(cyclooctyloxy)-4-oxobut-2-enoyl)oxy)propanoic acid] | > 5.60 | 30 to 100 | ++++ (++++ means <50) | – | – | 5 to 10 | – | ++ (++ means 200-277) | – | 4.70 to 5.22 | + (+ means >17.1-99) | > 5.70 | ++++ (++++ means 200-250%) |
| CC(C)(COC(=O)/C=C/C(=O)OC1CCCCCCC1)C(=O)O [Example 7, (E)-3-((4-(cyclooctyloxy)-4-oxobut-2-enoyl)oxy)-2,2-dimethylpropanoic acid] | > 5.60 | 5 to 29 | +++ (+++ means 50-149) | – | – | < 5 | – | + (+ means >277) | – | 4.70 to 5.22 | + (+ means >17.1-99) | > 5.70 | ++++ (++++ means 200-250%) |
| O=C(/C=C/C(=O)OC1(C(=O)O)CC1)OC1CCCCCCC1 [Example 8, (E)-1-((4-(cyclooctyloxy)-4-oxobut-2-enoyl)oxy)cyclopropane-1-carboxylic acid] | > 5.60 | 5 to 29 | +++ (+++ means 50-149) | – | – | < 5 | – | + (+ means >277) | – | 4.00 to 4.70 | ++ (++ means 100-149) | > 5.70 | ++++ (++++ means 200-250%) |
| O=C(O)COC(=O)/C=C/C(=O)OC1CC2(CCC2)C1 [Example 9, (E)-2-((4-oxo-4-(spiro[3.3]heptan-2-yloxy)but-2-enoyl)oxy)acetic acid] | 5.21 to 5.60 | 30 to 100 | ++++ (++++ means <50) | – | – | < 5 | – | + (+ means >277) | – | – | – | – | – |
| O=C(O)COC(=O)/C=C/C(=O)OC1CCCCCC1 [Example 10, (E)-2-((4-(cycloheptyloxy)-4-oxobut-2-enoyl)oxy)acetic acid] | > 5.60 | 30 to 100 | ++++ (++++ means <50) | – | – | < 5 | – | + (+ means >277) | – | – | – | – | – |
| CC(CC(=O)O)OC(=O)/C=C/C(=O)OC1CCCCCCC1 (stereo not shown) [Example 11, (E)-3-((4-(cyclooctyloxy)-4-oxobut-2-enoyl)oxy)butanoic acid] | > 5.60 | 5 to 29 | +++ (+++ means 50-149) | – | – | < 5 | – | + (+ means >277) | – | 4.00 to 4.70 | + (+ means >17.1-99) | > 5.70 | ++++ (++++ means 200-250%) |
| C[C@@H](OC(=O)/C=C/C(=O)OC1CCCCCCC1)C(=O)O [Example 12, (R,E)-2-((4-(cyclooctyloxy)-4-oxobut-2-enoyl)oxy)propanoic acid] | > 5.60 | > 100 | ++++ (++++ means <50) | – | – | < 5 | – | + (+ means >277) | – | 4.70 to 5.22 | ++ (++ means 100-149) | > 5.70 | ++++ (++++ means 200-250%) |
| CCCCCC[C@@H](C)OC(=O)/C=C/C(=O)OCC(=O)O [Example 13, 2-[(E)-4-[(1R)-1-methylheptoxy]-4-oxo-but-2-enoyl]oxyacetic acid] | 5.21 to 5.60 | 5 to 29 | +++ (+++ means 50-149) | – | – | < 5 | – | + (+ means >277) | – | 4.00 to 4.70 | ++ (++ means 100-149) | > 5.70 | +++ (+++ means 150-199%) |
| CCCCCC[C@@H](C)OC(=O)/C=C/C(=O)OCCC(=O)O [Example 14, (R,E)-3-((4-(octan-2-yloxy)-4-oxobut-2-enoyl)oxy)propanoic acid] | > 5.60 | < 5 | + (+ means >277) | – | – | < 5 | – | + (+ means >277) | – | 4.70 to 5.22 | ++ (++ means 100-149) | 5.22 to 5.68 | +++ (+++ means 150-199%) |

From US20240010606A1, “FUMARATE DERIVATIVES AND THEIR MEDICAL USE” (Sitryx Therapeutics Limited, priority 2020, published 2024)
